Test results as given in US20060003924A1, “Sulfation-independent L-selectin or E-selectin ligand (HCELL) and therapeutics thereof” (priority 1994, published 2006).

What was measured:
L-selectin = test: Flow cytometry of surface L-selectin (TQ1) on PMA-treated PBL; assay type: cell-based, human; details: 10 ng/ml PMA, 1 hour 37° C.
Description: (§1) PMA Treatment of Lymphocytes. Lymphocytes were suspended at 1′ 10^7 cells/ml in cell culture medium and incubated 1 hour at 37° C. with or without 10 ng/ml PMA (Gibco-BRL). Cells were then washed twice in PBS and used in either the lymphocyte binding assay or analyzed for surface antigens by flow cytometry (see below).
(§2) Antigen Expression by Flow Cytometry. Flow cytometric analysis was performed using the following commercially-available mAbs together with isotype-matched controls: TQ1 (anti-L-selectin), LAM1-3 (Anti-L-selectin), 4B4 (anti-VLA-4) (all from Coulter Corp.); QBEND10 (anti-CD34) (AMAC, Westbrook, Me.); anti-CD44, LFA-1-b (anti-CD18), LFA-1-a (anti-CD11a), HPCAS-2 (anti-CD34), anti-CD45, Leukosialin (anti-CD43), anti-Sialyl-Le^x (all from Becton Dickinson). Cells (1′ 10^6) in […] of PBS with 2% FBS were incubated on ice for 25 minutes with antibody as per manufacturer's recommendations, washed ′3 and analyzed on a FACStar^PLUS (Becton Dickinson).

[1] = test system: CD44, LFA-1 (both a and b chains), and VLA-4; test: Flow cytometry of CD44, LFA-1 and VLA-4 on PMA-treated PBL; assay type: cell-based, human; details: vs control PBL
Description: as §1, §2

KG1a cells = test: Stamper-Woodruff lymphocyte adherence assay on KG1a cytospins (Example 9); assay type: cell-based, human; details: Stamper-Woodruff assay
KG1a [2] = test: Lymphocyte adherence assay on KG1a cytocentrifuge preparations (Examples 2-6); assay type: cell-based, human
LN HEV = test: Lymphocyte adherence to frozen rat lymph node sections (LN HEV, positive control); assay type: cell-based
Description: Lymphocyte Adherence Assay. […] Cytocentrifuge preparations of KG1a or other cell lines were made on a Cytospin 3 Cytocentrifuge (Shandon Lipshaw, Pittsburgh, Pa.). Frozen rat LN sections […] thick were mounted on slides, and lymphocyte binding to LN HEV served as a positive control in all experiments.
Lymphocyte suspensions ([…]) were overlaid onto cytocentrifuge or LN sections in duplicate and placed on a rotating platform (80 rpm) at 4° C. for 30 minutes. Slides were then rinsed in cold PBS to remove non-adherent lymphocytes, fixed in 3% glutaraldehyde, and stained with methyl green-thionin. Slides were examined under the light microscope for adherence of lymphocytes to KG1a or LN HEV.

protein synthesis = test: 35S-methionine/cysteine incorporation into TCA-precipitable protein of KG1a; assay type: cell-based, human
Description: In each case, cells were cultured for 20 hours and the expression of L-selectin ligand activity was measured by adherence assay at the end of the culture period. For all studies utilizing metabolic inhibitors, parallel cultures were established in the presence of ^35S-methionine/cysteine and protein synthesis was measured by scintillation counting of trichloroacetic acid (TCA)-precipitable protein as previously described (27).

CD43 = test: Flow cytometry of sialic acid-dependent L60 epitope of CD43 on KG1a after neuraminidase; assay type: cell-based, human; details: KG1a cultured with the agent
KG1a [3] = test: KG1a cell viability by trypan blue exclusion; assay type: cell-based, human; details: KG1a after the treatment
PSGL-1 on KG1a cells = test: P-selectin-Ig binding to PSGL-1 on KG1a cells (flow cytometry); assay type: cell-based, human; details: after treatment of KG1a
sulfation = test: 35S-SO4 pulse radiolabelling of KG1a, TCA-precipitable counts; details: 10 mM chlorate, eight hour pulses within 24 hours

CCCCCCCCCCCCCC(=O)O[C@@H]1[C@@H](C)[C@@]2(O)[C@@H](C=C(CO)C[C@]3(O)C(=O)C(C)=C[C@@H]23)[C@@H]2C(C)(C)[C@]12OC(C)=O [PMA, phorbol myristate acetate]
TQ1 mean channel fluorescence, of that of untreated cells (L-selectin): less than 10% | expression of CD44, LFA-1 and VLA-4 following PMA exposure [1]: identical | L-selectin ligand (HCELL) activity of KG1a / lymphocyte adherence (result in words) (KG1a cells): complete elimination | lymphocyte binding to KG1a (result in words) (KG1a [2]): unable to bind | Lymphocyte Adherence to KG1a, Mean of Binding (% of untreated control) (KG1a [2]; […], 1 mM EDTA, 10 mM mannose-6-P, 10 mg/ml PPME, 5 mg/ml fucoidin, 10 ng/ml PMA): 1.1 % of Untreated Control | lymphocyte binding to LN control sections / LN HEV (result in words) (LN HEV): unable to bind

[O-][Cl+2]([O-])O [Chlorate, sodium chlorate]
protein synthesis (35S-methionine/cysteine TCA-precipitable counts) (protein synthesis): did not inhibit | return of the L60 epitope of CD43 after neuraminidase (CD43): did not block re-expression | L-selectin ligand (HCELL) activity of KG1a / lymphocyte adherence (result in words) (KG1a cells): did not alter | lymphocyte adherence to chlorate-incubated KG1a cells, that of neuraminidase-treated KG1a cells not incubated in chlorate (KG1a [2]; 24 hours after neuraminidase, 10 mM sodium chlorate, mean±SEM): 107% | Lymphocyte Adherence to KG1a, Mean of Binding (% of untreated control) (KG1a [2]; after neuraminidase, 24 hr culture with chlorate 10 mM, 20 hr culture with tunicamycin 15 ug/ml or cycloheximide 1.25 ug/ml): 107.1 % of untreated control | Cell viability (trypan blue exclusion) (KG1a [3]): > 95% | P-selectin(-Ig) binding to PSGL-1 on KG1a cells (PSGL-1 on KG1a cells): eliminated | TCA-precipitable 35S-SO4 radiolabeled protein counts, that of non-chlorate treated controls (sulfation): < 10%
